From article PMC8953385, “2-Styrylchromones: Cytotoxicity and Modulation of Human Neutrophils’ Oxidative Burst” (Pharmaceuticals, 2022)

Columns and labels:
[1] = test system: human neutrophils; assay: Annexin V/PI flow cytometric assay of neutrophils’ viability; format: cell-based; conditions: for Higher 2-SC concentration that did not affect human neutrophils’ viability: annexin V/PI assay, 40 min incubation at 37 °C
From the text: (§1) Following the Declaration of Helsinki and the approval of patient-related procedures and protocols by the Ethics Committee of Centro Hospitalar do Porto, Portugal, venous blood was collected from healthy human blood donors, after informed consent. The blood was stored into K3EDTA vacuum tubes after antecubital venipuncture of the donors. In order to obtain the isolated neutrophils, the density gradient centrifugation method was applied, as previously reported, with modifications. In brief, in a 15 mL polypropylene tube, 3 mL of histopaque 1119 were added followed by 3 mL of histopaque 1077 and finally, 4.5 mL of the collected blood were slowly added. Each tube was centrifuged at 900× g at 20 °C for 30 min, with a medium acceleration and deceleration speed. Following centrifugation, the neutrophils’ portion was harvested, and PBS was added to double the volume. The neutrophils’ suspension was then centrifuged at 850× g at 4 °C for 5 min, using a maximum acceleration and deceleration speed. The supernatant was discarded, and the neutrophils’ pellet was resuspended in PBS and afterward milli-Q water was added to lyse the residual erythrocytes. The tube was gently homogenized and after a few minutes, 3% NaCl was added to restore isotony, and then centrifuged again at 850× g at 4 °C for 5 min, using a maximum acceleration and deceleration speed. The supernatant was discarded, and a neutrophils’ pellet was obtained. After isolation, the neutrophils’ pellet was resuspended in the incubation media, tris-glucose buffer (25 mM Trizma® base, 5.5 mM D-glucose, 140 mM NaCl, 1.26 mM CaCl2, 0.81 mM MgSO4, 5.37 mM KCl, pH = 7.4). Neutrophils’ suspension was kept on ice, under soft shaking, until use. The trypan blue exclusion method was used to determine cells’ yield and viability.
(§2) The effect of the studied 2-SC on neutrophils’ viability was assessed by flow cytometry, after simultaneous staining with FITC Annexin V and propidium iodide (PI) (Figure S1), as previously reported by our research group, with modifications. After isolation, neutrophils (1 × 10^6 cells/mL) were incubated with 2-SC (up to 100.00 μM) or DMSO for 40 min, at 37 °C, in a 48-well plate. At the end of incubation, the content of each well was transferred to conical microtubes and centrifuged at 400× g at 20 °C for 5 min. After discarding the supernatant, the neutrophils’ pellet was resuspended in PBS and centrifuged under the previous conditions. Once the supernatant was removed, the pellet was resuspended in 10× diluted binding buffer, and then PI and annexin V were added. This mixture was incubated in the dark at room temperature for 15 min, and finally, 10× diluted binding buffer was added. In a flow cytometer, the fluorescence signal, of at least 10,000 cells/sample, were collected in logarithmic mode and followed in channels 1 and 3. The green fluorescence corresponding to annexin V FITC was accompanied in channel 1 and plotted as a histogram of FL1 staining, whereas the fluorescence corresponding to PI was monitored in channel 3 and plotted in the same histogram but as FL3 staining. The collected data were analyzed with the BD Accuri™ C6 software. The data analysis was restricted to the neutrophils’ population. Thus, according to the light-scattering properties of neutrophils (in a forward versus side scatter plot), a polygon gate was drawn, where debris and other blood cells were excluded. The effect of 2-SC on neutrophils’ viability was expressed as a relative percentage of apoptotic and/or necrotic cells when compared to the control (without 2-SC).

[2] = test system: human neutrophils’ oxidative burst; assay: Neutrophils’ oxidative burst, PMA stimulation, luminol chemiluminescence; format: cell-based; conditions: for IC50: PMA 160.00 nM, luminol 500.00 μM, mean ± SEM, read-out: IC50, inhibition of human neutrophils’ oxidative burst; for inhibition at 25 µM: 25.00 µM (highest tested concentration); for inhibition at 75 µM: 75.00 µM (highest tested concentration); for inhibition at 50 µM: 50.00 µM (highest tested concentration)
From the text: as §1
The effect of 2-SC on the modulation of neutrophils’ oxidative burst was assessed after the stimulation of these cells with PMA by monitoring the oxidation of chemiluminescent probe, luminol, by the generated reactive species (Figure S2), according to a previously described methodology. Briefly, neutrophils (1 × 10^6 cells/mL) were pre-incubated with luminol (500.00 μM), and 2-SC (0.00–100.00 μM) or DMSO, at the final concentrations indicated. After this pre-incubation, at 37 °C for 5 min, PMA (160.00 nM) was added, and in turn, neutrophils’ stimulation was initiated. Kinetic readings were immediately initiated and followed for 40 min, at 37 °C, in a microplate reader. The arbitrary chemiluminescence value was taken at the peak of the curve, and the results were expressed as the inhibition percentage of luminol oxidation.
GraphPad Prism 6 software was used to plot the curves of percentage of inhibition versus concentrations of compound, from which the concentration that produces 50% of inhibition (IC50) was determined. GraphPad Prism 6 software was also used to perform all statistical analyses. […] In all cases, p-values < 0.05 were considered statistically significant. The results are expressed as mean ± standard error of the mean (SEM).

[3] = Annexin V/PI flow cytometric assay of neutrophils’ viability; format: cell-based, human; conditions: human, isolated human neutrophils, pH 7.4; 75.00 μM; representative plot, Figure 4; read-out: Viable cells [annexin V (−)/PI (−)], lower left quadrant
From the text: as §1, §2

[4] = Homo sapiens, Neutrophil, read-out: Inhibitory activity (% ± SEM), neutrophils’ oxidative burst

## COc1ccc2c(=O)cc(/C=C/c3ccc(O)c(O)c3)oc2c1 [B10]
[1]
  Higher 2-SC concentration that did not affect human neutrophils’ viability: 6.25 µM
[2]; Homo sapiens, Neutrophil
  IC50: 1000 ± 100 nM

## O=c1cc(/C=C/c2ccc(O)c(O)c2)oc2cccc(O)c12 [B7]
[1]; 0.38 μM
  Effect on human neutrophils’ viability: no effect on the viability was observed
[1]
  Higher 2-SC concentration that did not affect human neutrophils’ viability: 0.38 µM
[2]; 0.38 µM (highest tested concentration)
  Inhibitory activity (% ± SEM), neutrophils’ oxidative burst: did not show an inhibitory effect
[2]; Homo sapiens, Neutrophil, 0.38 µM (highest tested concentration), read-out: Inhibitory activity (% ± SEM), neutrophils’ oxidative burst
  inhibition at 0.38 µM: < 30%

## COc1ccc2c(=O)c(Br)c(/C=C/c3ccccc3)oc2c1 [H1]
[1]
  Higher 2-SC concentration that did not affect human neutrophils’ viability: 12.50 µM

## O=c1cc(/C=C/c2ccc(O)cc2)oc2cc(O)cc(O)c12 [B4]
[1]
  Higher 2-SC concentration that did not affect human neutrophils’ viability: 6.25 µM
[2]; Homo sapiens, Neutrophil
  IC50: 3100 ± 300 nM

## COc1ccc2c(=O)cc(/C=C/c3ccc(OCc4ccccc4)c(OCc4ccccc4)c3)oc2c1OC [D3]
[1]
  Higher 2-SC concentration that did not affect human neutrophils’ viability: 12.50 µM

## COc1ccc2c(=O)cc(/C=C/c3ccc(OC)c(OC)c3)oc2c1 [C4]
[1]
  Higher 2-SC concentration that did not affect human neutrophils’ viability: 37.50 µM
[2]; Homo sapiens, Neutrophil
  IC50: 24200 ± 300 nM
[2]; comparison of IC50 values with C8
  Times less active than C8 (oxidative burst): about 14 times

## O=c1cc(/C=C/c2ccc(Cl)c(Cl)c2)oc2cccc(O)c12 [G3]
[1]
  Higher 2-SC concentration that did not affect human neutrophils’ viability: 25.00 µM
[2]; [4]
  inhibition at 25 µM: < 30%

## O=c1cc(/C=C/c2ccccc2O)oc2cccc(O)c12 [A8]
[1]
  Higher 2-SC concentration that did not affect human neutrophils’ viability: 25.00 µM
[2]; [4]
  inhibition at 25 µM: < 30%

## O=c1cc(/C=C/c2ccccc2)oc2cc(O)ccc12 [A3]
[3]
  viability at 40 min, 75 µM: 84.3%
[1]; 75.00 μM
  Effect on human neutrophils’ viability: showed no effect on human neutrophils’ viability
[1]
  Higher 2-SC concentration that did not affect human neutrophils’ viability: 75.00 µM
[2]; [4]
  inhibition at 75 µM: 53 ± 4%

## O=c1cc(/C=C/c2ccc([N+](=O)[O-])cc2)oc2cccc(O)c12 [F2]
[1]
  Higher 2-SC concentration that did not affect human neutrophils’ viability: 12.50 µM

## O=c1cc(/C=C/c2ccccc2)oc2ccccc12 [A1]
[1]
  Higher 2-SC concentration that did not affect human neutrophils’ viability: 75.00 µM
[2]; [4]
  inhibition at 75 µM: < 30%

## O=c1cc(/C=C/c2cccc(O)c2)oc2cccc(O)c12 [A7]
[1]
  Higher 2-SC concentration that did not affect human neutrophils’ viability: 6.25 µM

## COc1ccc2c(=O)c(Br)c(/C=C/c3ccc(OC)c(OC)c3)oc2c1 [H3]
[1]
  Higher 2-SC concentration that did not affect human neutrophils’ viability: 12.50 µM

## COc1ccc(/C=C/c2cc(=O)c3c(OC)cccc3o2)cc1OC [C3]
[1]
  Higher 2-SC concentration that did not affect human neutrophils’ viability: 50.00 µM
[2]; [4]
  inhibition at 50 µM: 54 ± 4%

## O=c1cc(/C=C/c2ccc(O)c(O)c2)oc2cc(O)cc(O)c12 [B9]
[1]
  Higher 2-SC concentration that did not affect human neutrophils’ viability: 12.50 µM
[2]; Homo sapiens, Neutrophil
  IC50: 800 ± 100 nM

## COc1cc(OC)c2c(=O)cc(/C=C/c3ccc(OC)c(OC)c3)oc2c1 [C5]
[1]
  Higher 2-SC concentration that did not affect human neutrophils’ viability: 75.00 µM
[2]; [4]
  inhibition at 50 µM: 54 ± 2%

## O=c1cc(/C=C/c2ccc(O)c(O)c2)oc2c(O)c(O)ccc12 [B12]
[1]
  Higher 2-SC concentration that did not affect human neutrophils’ viability: 12.50 µM
[2]; Homo sapiens, Neutrophil
  IC50: 900 ± 300 nM

## COc1cc(O)c2c(=O)cc(/C=C/c3ccc(O)cc3)oc2c1 [B5]
[1]
  Higher 2-SC concentration that did not affect human neutrophils’ viability: 6.25 µM
